What was measured:
[1] = system: 6 Hz 32 mA Epilepsy Model (electrically induced psychomotor seizure); assay: Minimal clonic seizure (6 Hz, 32 mA) test; assay type: in vivo, Mouse; settings: for animals protected/animals tested: 6 Hz 32 mA, Mouse, IP; for ED50: Mus musculus, ip, 6 Hz 32 mA dose response (Test 7-2), mice
From the text: (§1) 1. Minimal Clonic Seizure (6 Hz, 32 mA or 44 mA) Test
(§2) Test compounds are pre-administered to mice via i.p. injection. At varying times, individual mice (four per time point) are challenged with sufficient current delivered through corneal electrodes to elicit a psychomotor seizure in 97% of animals (32 mA or 44 mA for 3 s) (Toman J E P, Everett G M, Richards R K: The Search for New Drugs against Epilepsy. Texas Reports on Biology and Medicine 1952; 10:96-104). Untreated mice will display seizures characterized by a minimal clonic phase followed by stereotyped, automatistic behaviors described originally as being similar to the aura of human patients with partial seizures. Animals not displaying this behavior are considered protected. The test compounds are evaluated quantitatively by measuring the responses at varying doses at a determined time of peak effect (TPE).

[2] = system: MES Model (maximal electroshock seizure); assay: Maximal electroshock seizure (MES) test; assay type: in vivo; settings: Mouse, IP
Experimental: 3. Maximal Electroshock Seizure (MES) Test
MES test is performed as in the Minimal Clonic Seizure (6 Hz) test, but the MES test utilizes a current of 50 mA (mice) or 150 mA (rats), frequency of 50-60 Hz, and a stimulation time of 0.2 seconds. Upon stimulation, untreated test subjects display immediate severe tonic seizure (including maximal extension of legs) and the body becomes stiffened for roughly 10-15 seconds. Next, clonic seizures start (including shaking of body and paddling movements of the hind limbs) and may last 20-30 seconds (Castel-Branco M M, Alves G L, Figueiredo I V, Falcao A C, Caramona M M: The Maximal Electroshock Seizure (MES) Model in the Preclinical Assessment of Potential New Antiepileptic Drugs. Methods and Findings in Experimental and Clinical Pharmacology 2009; 31:101-06). Test subjects that display reduced or eliminated symptoms of MES-type seizures during and/or after stimulation are considered protected.

[3] = system: minimal muscular or neurological impairment (rotorod); assay: Acute toxicity - minimal motor impairment (rotorod); assay type: in vivo; settings: for Toxicity Ratio: Mouse
From the text: 4. Acute Toxicity-Minimal Motor Impairment
To assess a compound's undesirable side effects (toxicity), animals are monitored for overt signs of impaired neurological or muscular function. In mice, the rotorod (Dunham N W, Miya T S: A Note on a Simple Apparatus for Detecting Neurological Deficit in Rats and Mice. Journal of the American Pharmaceutical Association 1957; 46:208-09), procedure is used to disclose minimal muscular or neurological impairment. When a mouse is placed on a rod that rotates at a speed of 6 rpm, the animal can maintain its equilibrium for long periods of time. The animal is considered toxic if it falls off this rotating rod three times during a 1-min period. In rats, minimal motor deficit is indicated by ataxia, which is manifested by an abnormal, uncoordinated gait. Rats used for evaluating toxicity are examined before the test drug is administered, since individual animals may have peculiarities in gait, equilibrium, placing response, etc., which might be attributed erroneously to the test substance.

[4] = system: 6 Hz 44 mA Epilepsy Model (electrically induced psychomotor seizure); assay: Minimal clonic seizure (6 Hz, 44 mA) test; assay type: in vivo; settings: Mouse, IP, 100 mg/kg
From the text: as §1, §2

[5] = system: Corneal Kindled Mouse (Stage 5 seizures); assay: Corneal kindled mouse (focal seizures) - Test 26; assay type: in vivo; settings: IP, TPE 0.5 hrs
From the text: 2. Corneal Kindling (Focal Seizures)
Mice are kindled electrically with 3 sec stimulation, 8 mA, 60 Hz, and corneal electrodes to a criterion of 10 consecutive Stage 5 seizures (facial clonus and head nodding progressing to forelimb clonus, and finally rearing and falling accompanied by a generalized clonic seizure as described by Racine (Racine R J: Modification of Seizure Activity by Electrical Stimulation. II. Motor Seizure. Electroen Clin Neuro 1972; 32:281-94). Stage 5 is generally reached after twice daily stimulation for 8 days. With continued stimulation once a day, animals usually progress to a reproducible Stage 5 after 10-14 additional days. At least 72 hours after the mice have been kindled, the test substance is administered either intraperitoneal (i.p.) or per os (p.o.) and, at the previously determined TPE, each animal is given the electrical stimulus indicated above. Following stimulation, the animals are observed for the presence or absence of the rearing and falling criteria of a Stage 5 seizure. Treated animals not displaying a Stage 3, 4, or 5 seizure are considered protected. The dose of the test substance is varied between the limits of 0 and 100% efficacy, and the ED50 and 95% confidence intervals calculated by probit analysis. Mean values and the S.E.M. are calculated for the length of clonus and seizure duration and p values are determined by the Student's t-test.

[6] = system: 6 Hz 32 mA Epilepsy Model (electrically induced psychomotor seizure); assay: Minimal clonic seizure (6 Hz, 32 mA) test; assay type: in vivo; settings: Mouse, Oral, 100 mg/kg, TPE N/A
[7] = MES screen table, IP, 100 mg/kg, TPT N/A
[8] = Test 7-1 table, IP, 100 mg/kg, TPT N/A
[9] = Test 7-1 table, IP, 30 mg/kg, TPT NA
[10] = Test 7-1 table, IP, 300 mg/kg, TPT 0.5 hrs
[11] = Test 7-3 table, IP, 100 mg/kg, TPT N/A

Compound | animals protected/animals tested ([1]; 100 mg/kg, TPE 0.5 hrs) | animals protected/animals tested ([2]; 100 mg/kg, TPE 0.25 hrs) | Toxicity Ratio [3, 7] | Toxicity Ratio [3, 8] | animals protected/animals tested ([1]; 30 mg/kg, TPE 0.5 hrs) | Toxicity Ratio [3, 9] | Toxicity Ratio [3, 10] | ED50 ([1]; TPE 0.5 hrs) [mg/kg] | Toxicity Ratio [3, 11] | animals protected/animals tested ([1]; 300 mg/kg, TPE 0.5 hrs) | animals protected/animals tested ([2]; 100 mg/kg, TPE 0.5 hrs) | animals protected/animals tested ([2]; 300 mg/kg, TPE 0.5 hrs) | also measured
CC(C)c1cc(O)c(C(C)(C)C)cc1Br [Ex. 204, 4-Bromo-2-tert-butyl-5-isopropyl-phenol] | 2/4 | 1/4 | 0/8 | 0/4 |  |  |  |  |  |  |  |  | 
Cc1cc(Br)c(C(C)(C)C)cc1O [Ex. 25, 4-Bromo-5-tert-butyl-2-methyl-phenol] | 2/4 |  |  | 0/8 | 2/4 | 0/8 | 4/8 |  |  |  |  |  | animals protected/animals tested ([1]; 300 mg/kg, TPE 2 hrs): 4/4
Cc1cc(O)c(C(C)C)cc1Br [Ex. 132, 4-Bromo-2-isopropyl-5-methyl-phenol] | 3/4 |  |  | 0/4 |  |  |  | 28 | 0/4 |  |  |  | animals protected/animals tested ([4]; TPE 2 hrs): 2/4; Average Seizure Score ([5]; 28 mg/kg): 4.5; Seizure Ratio ([5]; 28 mg/kg): 1/4; animals protected/animals tested ([2]; 100 mg/kg, TPE 1 hrs): 2/4; Toxicity Ratio ([3]; MES screen table, IP, 100 mg/kg, TPT 0.5 hrs): 1/8; TD50 at 4 hrs ([3]; mouse, in vivo, intraperitoneal, Test 7-2 table, TPT 4 hrs): > 200 mg/kg
Cc1cc(Br)c(C(C)C)cc1O [Ex. 9, 4-bromo-5-isopropyl-2-methyl phenol] | 3/4 | 1/4 | 0/8 | 0/4 |  |  |  | 19 |  |  |  |  | Average Seizure Score ([5]; 19 mg/kg): 3.75; Seizure Ratio ([5]; 19 mg/kg): 1/4; Toxicity Ratio ([3]; Test 7-1 table, Oral, 100 mg/kg, TPT N/A): 0/4; TD50 at 6 hrs ([3]; mouse, in vivo, intraperitoneal, Test 7-2 table, TPT 6 hrs): 398 mg/kg; animals protected/animals tested [6]: 0/4
CCCc1ccc(C(C)C)cc1O [Ex. 95, 5-Isopropyl-2-propyl-phenol] |  |  |  |  | 0/4 |  | 3/8 |  |  | 3/4 | 0/4 | 1/4 | animals protected/animals tested ([1]; 10 mg/kg, TPE 0.5 hrs): 3/4; animals protected/animals tested ([2]; 30 mg/kg, TPE 0.5 hrs): 0/4; Toxicity Ratio ([3]; Test 7-1 table, IP, 10 mg/kg, TPT 0.5 hrs): 1/8; Toxicity Ratio ([3]; Test 7-1 table, IP, 30 mg/kg, TPT 0.5 hrs): 0/8
CCc1cc(Br)c(C(C)C)cc1O [Ex. 64, 4-Bromo-2-ethyl-5-isopropyl-phenol] | 3/4 |  | 0/8 | 0/8 | 1/4 | 0/8 | 6/8 |  | 0/4 | 4/4 | 1/4 | 2/4 | animals protected/animals tested ([4]; TPE 0.25 hrs): 1/4; animals protected/animals tested ([2]; 30 mg/kg, TPE NA): 0/4; Toxicity Ratio ([3]; MES screen table, IP, 30 mg/kg, TPT NA): 0/8; Toxicity Ratio ([3]; MES screen table, IP, 300 mg/kg, TPT 0.5 hrs): 6/8

From patent US9630896B2, “2,5-dialkyl-4-H/halo/ether-phenol compounds” (Tansna Therapeutics Inc, priority 2013, dated 2017)
